The results in this text go back to ChEMBL document CHEMBL4354883, “Design, Synthesis, and Biological Evaluation of HSP90 Inhibitor-SN38 Conjugates for Targeted Drug Accumulation” (J Med Chem, 2020).

The target in series [1] is T1, Heat shock protein HSP90 (Homo sapiens, UniProt P07900+P08238). Put plainly: Inhibition of HSP90 in human HCT116 cells assessed as upregulation of HSP70 expression at 0.2 to 5 uM after 24 hrs by Western blot analysis. Type of series: cell-based. In general terms: A western blot detects proteins with antibodies after separation by electrophoresis.
Series [2] has as its target T2, DNA topoisomerase 1 (Homo sapiens) (UniProt P11387).
T2 sequence (whole entry): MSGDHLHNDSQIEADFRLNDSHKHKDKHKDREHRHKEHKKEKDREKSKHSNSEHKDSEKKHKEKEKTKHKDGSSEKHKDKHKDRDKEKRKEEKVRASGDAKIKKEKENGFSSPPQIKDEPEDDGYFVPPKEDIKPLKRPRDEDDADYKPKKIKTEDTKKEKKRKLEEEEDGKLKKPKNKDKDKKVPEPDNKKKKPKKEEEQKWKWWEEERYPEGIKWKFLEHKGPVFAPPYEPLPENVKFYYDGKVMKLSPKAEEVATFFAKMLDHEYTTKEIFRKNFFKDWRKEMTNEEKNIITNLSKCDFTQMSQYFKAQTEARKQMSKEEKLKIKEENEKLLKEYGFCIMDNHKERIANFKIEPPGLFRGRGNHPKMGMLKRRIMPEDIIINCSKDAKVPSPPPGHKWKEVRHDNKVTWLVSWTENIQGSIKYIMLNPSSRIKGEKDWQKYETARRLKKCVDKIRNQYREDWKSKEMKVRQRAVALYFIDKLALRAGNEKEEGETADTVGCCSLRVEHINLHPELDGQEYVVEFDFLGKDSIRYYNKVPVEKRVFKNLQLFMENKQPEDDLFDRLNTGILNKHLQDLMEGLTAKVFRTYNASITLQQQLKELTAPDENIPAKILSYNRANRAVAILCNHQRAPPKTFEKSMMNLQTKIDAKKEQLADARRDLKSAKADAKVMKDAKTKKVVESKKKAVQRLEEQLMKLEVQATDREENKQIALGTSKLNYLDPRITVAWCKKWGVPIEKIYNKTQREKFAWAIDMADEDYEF
Put plainly: Inhibition of topoisomerase 1 in human A549 cells assessed as increase in phosphorylated KAP1 expression at 0.2 to 5 uM after 24 hrs by Western blot analysis. Type of series: cell-based.

Series [3] concerns the target T2, DNA topoisomerase 1 (Homo sapiens). Put plainly: Inhibition of topoisomerase 1 in human HCT116 cells assessed as increase in phosphorylated KAP1 expression at 0.2 to 5 uM after 24 hrs by Western blot analysis. The class given is cell-based.
Series [4] shares this target. Put plainly: Inhibition of topoisomerase 1 in human A549 cells assessed as increase in phosphorylated KAP1 expression after 24 hrs by Western blot analysis. Type of series: cell-based.
Series [5] has the same target. Put plainly: Inhibition of topoisomerase 1 in human HCT116 cells assessed as increase in phosphorylated KAP1 expression after 24 hrs by Western blot analysis. The class given is cell-based.
A short description of series [6]: Drug uptake in tumor of mouse xenografted with human HCT116 cells at 50 mg/kg, iv administered as single dose after 1 hr by LC-MS/MS analysis. Type of series: ADME, organism-based, Neoplasm. Conditions: in vivo. (In xenograft studies the graft and the host belong to different species.)
For series [7], the system named is CAPAN-1. Put plainly: Antitumor activity against human Capan1 cells xenografted in mouse assessed as reduction in tumor weight at 50 mg/kg, iv for every 2 days and measured twice per week by caliper method. The class given is functional, organism-based.
Series [8] in a line: Toxicity in mouse xenografted with human Capan1 cells assessed as increase in body weight at 50 mg/kg, iv for every 2 days. Conditions: in vivo, 48 h. The class given is organism-based.
In series [9] the test system is Mus musculus. Put plainly: Down regulation of topoisomerase 1 expression in mouse xenografted with human Capan1 cells at 50 mg/kg, iv for every 2 days measured at 2 hrs post last dose by Western blot analysis. Type of series: functional, organism-based.
The test system of series [10] is Mus musculus. Put plainly: In vivo inhibition of HSP90 in mouse xenografted with human Capan1 cells assessed as increase in HSP70 protein expression at 50 mg/kg, iv for every 2 days measured at 2 hrs post last dose by Western blot analysis. Type of series: functional, organism-based.
The subject of series [11] is Mus musculus. Put plainly: In vivo inhibition of HSP90 in mouse xenografted with human Capan1 cells assessed as decrease in AKT protein expression at 50 mg/kg, iv for every 2 days measured at 2 hrs post last dose by Western blot analysis. Type of series: functional, organism-based.
A short description of series [12]: Drug uptake in mouse plasma xenografted with human Capan1 cells at 50 mg/kg, iv after 30 mins by LC-MS/MS analysis. The class given is ADME, organism-based. Conditions: in vivo, 0.5 h.
The nature of series [13]: Prodrug release in mouse plasma xenografted with human Capan1 cells assessed as increase in 7-ethyl-10-hydroxycamptothecin level at 50 mg/kg, iv after 30 mins to 72 hrs by LC-MS/MS analysis. Type of series: ADME, organism-based. Conditions: in vivo.
The nature of series [14]: Drug uptake in tumor of mouse xenografted with human Capan1 cells assessed as retention time of the compound at 50 mg/kg, iv by LC-MS/MS analysis. The class given is ADME, organism-based, Neoplasm. Conditions: in vivo.
Series [15] can be described thus: Prodrug release in tumor of mouse xenografted with human Capan1 cells assessed as increase in 7-ethyl-10-hydroxycamptothecin level at 50 mg/kg, iv after 72 hrs by LC-MS/MS analysis. The class given is ADME, organism-based, Neoplasm. Conditions: in vivo.
Series [16] is described as follows: Toxicity in heart of mouse xenografted with human Capan1 cells assessed as pathological changes at 50 mg/kg, iv for every 2 days measured at 2 hrs post last dose by H and E staining based analysis. Type of series: organism-based. Conditions: in vivo.
Series [17] is described as follows: Toxicity in kidney of mouse xenografted with human Capan1 cells assessed as pathological changes at 50 mg/kg, iv for every 2 days measured at 2 hrs post last dose by H and E staining based analysis. Conditions: in vivo. Type of series: organism-based.
Series [18] in a line: Toxicity in spleen of mouse xenografted with human Capan1 cells assessed as pathological changes at 50 mg/kg, iv for every 2 days measured at 2 hrs post last dose by H and E staining based analysis. Conditions: in vivo. The class given is organism-based.
For series [19], the system named is CAPAN-1. Put plainly: Antitumor activity against human Capan1 cells xenografted in mouse assessed as increase in apoptosis of tumor cells by measuring increase in green fluorescence at 50 mg/kg, iv for every 2 days measured at 2 hrs post last dose by TUNEL assay. Type of series: functional, organism-based.
For series [20], the system named is CAPAN-1. Put plainly: Antitumor activity against human Capan1 cells xenografted in mouse assessed as reduction in Ki67 expression at 50 mg/kg, iv for every 2 days measured at 2 hrs post last dose by Ki67 staining based immunohistochemical analysis. Type of series: functional, organism-based.
A short description of series [21]: Drug uptake in human HL7702 cells in PBS solution at 5 uM after 6 hrs by confocal laser scanning microscopic analysis. Conditions: l02, 6 h. The class given is ADME, cell-based.
The nature of series [22]: Stability of compound in PBS buffer assessed as drug degradation at 50 uM at pH 7.4 measured after 12 hrs by HPLC analysis. The class given is physicochemical. Conditions: read-out: Drug degradation.
Series [23] can be described thus: Drug uptake in tumor of mouse xenografted with human HCT116 cells at 50 mg/kg, iv administered as single dose measured up to 72 hrs by LC-MS/MS analysis. Conditions: in vivo. The class given is ADME, organism-based, Neoplasm.
In series [24] the target is T1, Heat shock protein HSP90. Put plainly: Inhibition of HSP90 in human A549 cells assessed as upregulation of HSP70 expression at 0.008 to 1 uM after 24 hrs by Western blot analysis. The class given is cell-based.
In series [25] the target is T1, Heat shock protein HSP90. Put plainly: Inhibition of HSP90 in human HCT116 cells assessed as upregulation of HSP70 expression at 0.008 to 1 uM after 24 hrs by Western blot analysis. The class given is cell-based.
The target in series [26] is T1, Heat shock protein HSP90. Put plainly: Inhibition of HSP90 in human A549 cells assessed as downregulation of Akt expression at 0.008 to 1 uM after 24 hrs by Western blot analysis. Type of series: cell-based.
Series [27] deals with T1, Heat shock protein HSP90. Put plainly: Inhibition of HSP90 in human HCT116 cells assessed as downregulation of Akt expression at 0.008 to 1 uM after 24 hrs by Western blot analysis. Type of series: cell-based.

The structures appear in SMILES notation. Active and inactive are the calls of the source. The rule behind the calls is not given here.

Turning to `CCc1c2c(nc3ccc(OC(=O)N4CCC(NC(=O)c5noc(-c6cc(C(C)C)c(O)cc6O)c5-c5ccc(CN6CCOCC6)cc5)CC4)cc13)-c1cc3c(c(=O)n1C2)COC(=O)[C@]3(O)CC`, the inhibition entry at Heat shock protein HSP90 [1] was “Active”. The inhibition result in series [2] and in [3] was “inactive” each time.

Regarding `CCc1c2c(nc3ccc(O)cc13)-c1cc3c(c(=O)n1C2)COC(=O)[C@@]3(CC)OC(=O)CNC(=O)c1noc(-c2cc(C(C)C)c(O)cc2O)c1-c1ccc(CN2CCOCC2)cc1`, the inhibition result in [4] and in series [5] was “Dose-dependent effect” in each case. The Drug uptake result in series [6] was “Not Active”; in [12] it was “Active”; in [21] it was “Not Active”; in [23], “Active”. Besides, the outcome in the series with CAPAN-1 [7], with CAPAN-1 [19] and in the series on CAPAN-1 [20] was Active. For the same molecule, the Activity was 10% in series [8], “Non-Toxic” in [16], “Non-Toxic” in series [17] and “Toxic” in series [18]. Besides, the inhibition entry in the series with Mus musculus [9], in the series with Mus musculus [10] and with Mus musculus [11] was “Active” throughout. Besides, the Drug metabolism entry in [13] and in series [15] was “Metabolite_Detected” throughout. In [14], the Retention_time came to 72 h. Moreover, in series [22], the degraded at 12 h, 50 µM was determined as 75%. Moreover, the inhibition entry on Heat shock protein HSP90 [24], at Heat shock protein HSP90 [25], at Heat shock protein HSP90 [26] and at Heat shock protein HSP90 [27] was “inactive” throughout.
